Some test systems named below: K562; MOLT-4; A549; CAKI-1; UACC-257; HT-29; NCI-H522; SK-MEL-2; RPMI-8226; DMS-114; LXFL 529; ACHN; KM12; HOP-62; SK-MEL-28; U-251; RXF 393; MDA-MB-231; MCF7.
Common to all, as to test: inhibition of tumour cell growth, NCI panel, 48 h

Experimental findings from ChEMBL document CHEMBL1201862, “PubChem BioAssay data set” (2004) are described below.

SMILES strings stand for the structures. Where “and” joins values, the source holds several entries; their conditions need not be identical. Equal values may be shown once.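 Values below derive from 48-hour exposures of cells grown in 96-well plates, with endpoints linearly interpolated between the two concentrations bracketing the appropriate inhibition level. Here, GI50 denotes the concentration required for 50% inhibition of growth.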 Calls of active or inactive are those of the source. Rule as the data show it: active = GI50 up to about 1.1 µM and inactive = higher. Where only a bound is given, the exact number is not on record here.

Regarding `CN1C[C@@H]2CC(=O)CC[C@@H]2C[C@H]1C#N`, the GI50 with K562, in the test on MOLT-4, in the test with A549, with CAKI-1, in the test with UACC-257 and in the test with HT-29 was > 100 µM (inactive) in each case. Further, the GI50 in the test with NCI-H522, in the test on SK-MEL-2, with RPMI-8226, with DMS-114, in the test with LXFL 529 and in the test with ACHN was > 100 µM (inactive) each time. The GI50 in the test with KM12 and in the test with HOP-62 was > 100 µM (inactive) in each case.

Turning to `Cc1cc2c(=O)cc(-c3ccc(C(=O)O)cc3)oc2c(C(=O)O)c1C`, the GI50 in the test on K562, with MOLT-4, in the test with SK-MEL-28, in the test with A549, with CAKI-1 and in the test with UACC-257 was > 100 µM (inactive) each time. Moreover, the GI50 in the test with HT-29, in the test with NCI-H522, with SK-MEL-2, in the test on RPMI-8226, with DMS-114 and in the test on LXFL 529 was > 100 µM (inactive) in each case. Moreover, the GI50 in the test with ACHN, in the test on KM12, in the test on U-251 and in the test on HOP-62 was > 100 µM (inactive) each time.

As for `COc1ccc(Br)c(N/N=C2\CCCNC2=O)c1`, the GI50 is > 100 µM (inactive) with K562; 69 µM (inactive) in the test with MOLT-4; > 100 µM (inactive) in the test on SK-MEL-28; > 100 µM (inactive) in the test with A549; 36.3 µM (inactive) with CAKI-1; > 100 µM (inactive) in the test with UACC-257. The GI50 with HT-29 was > 100 µM (inactive); in the test with NCI-H522, 58.5 µM (inactive); in the test on SK-MEL-2 it was > 100 µM (inactive); in the test on RPMI-8226, 51.5 µM (inactive); with DMS-114, 90.8 µM (inactive); with LXFL 529, > 100 µM (inactive). The GI50 was 40.4 µM (inactive) in the test on ACHN, > 100 µM (inactive) with KM12, 86.3 µM (inactive) in the test with U-251 and > 100 µM (inactive) in the test with HOP-62.

In the case of `CCOC(=O)C1=C(NC(C)(C)C)OCC1=O`, the GI50 in the test with K562, with MOLT-4, in the test with SK-MEL-28, in the test with A549, in the test on CAKI-1 and in the test on UACC-257 was > 100 µM (inactive) each time. In addition, the GI50 in the test with HT-29, in the test on NCI-H522, in the test on SK-MEL-2, in the test with RPMI-8226, in the test on LXFL 529 and in the test with ACHN was > 100 µM (inactive) each time. Besides, the GI50 in the test on KM12, with U-251 and in the test on HOP-62 was > 100 µM (inactive) each time.

As to `COC(=O)/N=C(\NC(=O)OC)Nc1ccc(Oc2ccccc2)cc1NC=O`, the GI50 with K562 is 0.265 µM (active); in the test on MOLT-4 it was 0.836 µM (active); with A549, 0.597 µM (active); with UACC-257 it was 2.48 µM (inactive); in the test with HT-29, 0.348 µM (active); in the test with NCI-H522, 0.253 µM (active). The GI50 was 2.55 µM (inactive) in the test with RPMI-8226; 0.253 µM (active) in the test with DMS-114; 0.667 µM (active) in the test with LXFL 529; 0.881 µM (active) in the test with ACHN; 0.466 µM (active) in the test on KM12; 0.333 µM (active) with U-251. The GI50 in the test on HOP-62 is 0.912 µM (active).

On to `C=C1C2CCCC1C1(S(C)(=O)=O)CCCCC21O` (configuration not stated), for which the GI50 in the test on K562, in the test on MOLT-4, in the test on SK-MEL-28, in the test on A549, in the test on CAKI-1 and in the test on UACC-257 was > 100 µM (inactive) throughout. Besides, the GI50 in the test on HT-29, in the test on NCI-H522, in the test with SK-MEL-2, with RPMI-8226, with DMS-114 and with LXFL 529 was > 100 µM (inactive) throughout. For the same molecule, the GI50 in the test with ACHN, with KM12 and in the test with U-251 was > 100 µM (inactive) throughout.

`C[C@]12CCC[C@H](O)[C@H]1C[C@H](CO)CC2`: the GI50 in the test with K562, with MOLT-4, in the test on SK-MEL-28, with A549, in the test with CAKI-1 and with UACC-257 was > 100 µM (inactive) each time. Also, the GI50 in the test on HT-29, with NCI-H522, with SK-MEL-2, in the test on RPMI-8226, in the test with LXFL 529 and in the test on ACHN was > 100 µM (inactive) in each case. The GI50 in the test on KM12, in the test on U-251 and with HOP-62 was > 100 µM (inactive) throughout.

As to `COc1ccc(OC)c2c(C(=O)O)c(C(C)c3ccccc3)ccc12` (configuration not stated), the GI50 in the test on K562, in the test on MOLT-4, in the test with SK-MEL-28, with A549, in the test on CAKI-1 and with UACC-257 was > 100 µM (inactive) throughout. The GI50 in the test with RXF 393, in the test with HT-29, with NCI-H522, in the test on SK-MEL-2, in the test on LXFL 529 and with ACHN was > 100 µM (inactive) each time. The GI50 with KM12 was > 100 µM (inactive); in the test on U-251 it was 91.4 µM (inactive); with HOP-62 it was > 100 µM (inactive).

As to `CCN(CC)CCNc1ccc2nc(C)n3c4ccc(O)cc4c(=O)c1c23`, the GI50 in the test with K562 is 1.48 µM (inactive); in the test with MOLT-4, 0.0447 µM (active); in the test with SK-MEL-28, 2.77 µM (inactive); with A549 it was 0.179 µM (active); with CAKI-1, 1.24 µM (inactive); with UACC-257, 8.63 µM (inactive). In addition, the GI50 in the test on HT-29 was 0.246 µM (active); in the test on NCI-H522 it was 0.179 µM (active); in the test with SK-MEL-2, 7.24 µM (inactive); in the test on RPMI-8226 it was 2.16 µM (inactive); in the test with DMS-114, 1.42 µM (inactive); with LXFL 529, 0.78 µM (active). Besides, the GI50 is 0.231 µM (active) with ACHN, 3.02 µM (inactive) in the test on KM12, 0.745 µM (active) in the test on U-251 and 0.975 µM (active) in the test with HOP-62.

For the molecule `CC(C)(Oc1ccc(C(=O)c2ccc(Cl)cc2)cc1Cl)C(=O)N1CCN(c2ccccc2)CC1`, the GI50 was 34.4 µM (inactive) in the test on K562; > 100 µM (inactive) in the test with MOLT-4; > 100 µM (inactive) in the test with SK-MEL-28; 58.5 µM (inactive) in the test on A549; 43.7 µM (inactive) with UACC-257; > 100 µM (inactive) in the test with HT-29. Besides, the GI50 in the test with NCI-H522 is 59 µM (inactive); in the test with SK-MEL-2, > 100 µM (inactive); with RPMI-8226 it was > 100 µM (inactive); in the test on DMS-114, 45.7 µM (inactive); in the test on LXFL 529, > 100 µM (inactive); in the test on KM12 it was > 100 µM (inactive). Also, the GI50 with U-251 and with HOP-62 was > 100 µM (inactive) throughout.

As for `Cc1ccc(C(=O)NC2CCCCC2)cc1/N=N/N(C)C`, the GI50 in the test on SK-MEL-28 is > 100 µM (inactive); with A549, > 100 µM (inactive); in the test with CAKI-1, > 100 µM (inactive); in the test with UACC-257 it was > 100 µM (inactive); in the test with HT-29, > 100 µM (inactive); in the test with NCI-H522, 74 µM (inactive). The GI50 with SK-MEL-2, with LXFL 529, with ACHN, in the test on KM12, in the test on U-251 and in the test with HOP-62 was > 100 µM (inactive) throughout.

Regarding `CC(C)c1cccc(C(C)C)c1NC(=O)/C(Cc1nc2ccc(Cl)cc2nc1O)=N\NC(=O)C[N+](C)(C)C`, the GI50 is > 100 µM (inactive) with K562; > 100 µM (inactive) in the test on MOLT-4; > 100 µM (inactive) in the test on SK-MEL-28; > 100 µM (inactive) in the test on A549; 95.7 µM (inactive) in the test with CAKI-1; > 100 µM (inactive) in the test on UACC-257. The GI50 with RXF 393, with HT-29, in the test with NCI-H522, in the test with SK-MEL-2, in the test with RPMI-8226 and with DMS-114 was > 100 µM (inactive) each time. Moreover, the GI50 in the test on ACHN, in the test on KM12 and in the test with HOP-62 was > 100 µM (inactive) in each case.

Take `COc1ccc2cc1Oc1ccc(cc1)C[C@H]1c3cc(c(OC)cc3CCN1C)Oc1c(OC)c(OC)cc3c1[C@H](C2)N(C)CC3` [FANCHININ]: the GI50 in the test with K562 was 41.2 µM (inactive) and 1.57 µM (inactive); with MDA-MB-231, 5.64 µM (inactive) and 19.8 µM (inactive); in the test on UACC-257, 43.1 µM (inactive) and 5.79 µM (inactive); in the test on RXF 393 it was 5.08 µM (inactive); in the test with NCI-H522, 34.8 µM (inactive) and 6.61 µM (inactive); in the test on RPMI-8226 it was 4.44 µM (inactive). Besides, the GI50 in the test with DMS-114 is 7.36 µM (inactive); in the test with ACHN, 7.93 µM (inactive) and 17.1 µM (inactive); in the test on U-251, 35.7 µM (inactive) and 7.66 µM (inactive); with HOP-62 it was 5.94 µM (inactive); in the test on MCF7 it was 82 µM (inactive) and 6.43 µM (inactive).
